{"source": "patent US20250042942A1", "about": "“PEPTIDE HAVING PHYSIOLOGICAL ACTIVITIES AND USE THEREOF” (CAREGEN CO., LTD., priority 2021, published 2025)", "test_system": "mouse RAW264.7 cell line", "assay": "Cytotoxicity, CCK-8 assay", "type": "cell-based", "settings": "peptide 10, 30, 30, 100, and 150 μg/ml, 3 days, CCK-8, FIG. 10B", "protocol": "The effect of the peptide of the present invention on cell proliferation was confirmed using CCK-8 assay. CCK-8 reagent is reduced by cellular dehydrogenase to produce a colored product, and the proliferation of cells may be confirmed through a difference in absorbance using this.\nAfter removing the medium, CCK-8 solution (Dojindo, CCK-8 kit) was diluted 10 times in the culture medium and treated at 100 μl each. During incubation at 37° C., absorbance at a wavelength of 450 nm was measured using a microplate reader at 30-minute intervals.", "note": "Peptide text beside a SMILES is read from it."}
{"smiles": "CC[C@H](C)[C@H](NC(=O)[C@H](C)NC(=O)[C@@H](N)CC(N)=O)C(=O)N[C@@H](CO)C(=O)N[C@H](C(=O)N[C@@H](CC(C)C)C(=O)N[C@@H](Cc1ccc(O)cc1)C(=O)N[C@@H](Cc1ccccc1)C(=O)N[C@@H](CC(=O)O)C(=O)N[C@@H](CC(=O)O)C(=O)N[C@@H](CO)C(=O)O)C(C)C", "note": "[SEQ ID NO: 1, NAISVLYFDDS] (H-NAISVLYFDDS-OH)", "values": [{"measurement": "toxicity to mouse macrophages", "result": "not toxic"}]}
